Reference: ChEMBL document CHEMBL4627390, “Effect of Temperature on 1H NMR Spectra, Antitrypanosomal Activity, Conformational Analysis, and Molecular Docking of Curine Derivatives from Berberis brevissima” (2020)
In brackets after ≈: the same amount, converted by molar mass.

Columns and labels:
Format in all cases: functional
[1] = test system: Trypanosoma brucei brucei; assay: Antitrypanosomal activity against Trypanosoma brucei brucei TC427 trypomastigotes after 24 hrs by AlamarBlue assay; conditions: TC427, 24 h
[2] = test system: Trypanosoma brucei brucei; assay: Antitrypanosomal activity against Trypanosoma brucei brucei TC427 trypomastigotes assessed percent viability at 20 ug/ml after 24 hrs by AlamarBlue assay relative to DMSO
[3] = test system: Trypanosoma brucei brucei; assay: Antitrypanosomal activity against Trypanosoma brucei brucei

SMILES	MIC [3]	MIC [1]	Activity [2]
COc1cc2c3cc1Oc1cc(ccc1O)C[C@@H]1c4c(cc(OC)c(O)c4Oc4ccc(cc4)C[C@H]3N(C)CC2)CCN1C	–	3.8 µM (≈ 2.26 µg/mL)	1.9%
COc1cc2c3cc1Oc1cc(ccc1O)C[C@@H]1c4c(cc(OC)c(OC)c4Oc4ccc(cc4)C[C@H]3N(C)CC2)CCN1C	–	2.6 µM (≈ 1.58 µg/mL)	1.6%
COc1ccc2c(c1OC)C(C(Cl)(Cl)Cl)N1CCc3cc4c(cc3C1=C2)OCO4 (stereo not given)	27.6 µM (≈ 12.6 µg/mL)	–	–
COc1cc2c3cc1Oc1cc(ccc1OC(C)=O)C[C@@H]1c4c(cc(OC)c(OC)c4Oc4ccc(cc4)C[C@H]3N(C)CC2)CCN1C	–	2.3 µM (≈ 1.5 µg/mL)	1.4%
COc1cc2c3cc1Oc1cc(cc([N+](=O)[O-])c1O)C[C@@H]1c4c(cc(OC)c(OC)c4Oc4ccc(cc4)C[C@H]3N(C)CC2)CCN1C	–	2.2 µM (≈ 1.44 µg/mL)	1.5%
COc1ccc2cc3[n+](cc2c1OC)CCc1cc2c(cc1-3)OCO2 [BERBERINE]	74.4 µM	–	–
